≈ marks a conversion by molar mass, not a printed value. Read-outs that look alike come from different tables or passages of the source.
Key:
E. coli GC 2203 = experiment: MIC, broth microdilution; conditions: Escherichia coli
S. typhimurium GC 2172 = experiment: MIC, broth microdilution; conditions: Salmonella enterica, TYPHIMURIUM
S. aureus GC 6466 = experiment: MIC, broth microdilution; conditions: Staphylococcus aureus
E. coli GC 6465 = experiment: MIC, broth microdilution; conditions: Escherichia coli
E. coli GC 2272 = experiment: MIC, broth microdilution; conditions: Escherichia coli
S. aureus GC 1079 = experiment: MIC, broth microdilution; conditions: Staphylococcus aureus
Staph. = experiment: Range of MIC for Staph. strains, including MRSA; conditions: Staphylococcus aureus
E. faecalis GC 2267 = experiment: MIC, broth microdilution; conditions: Enterococcus faecalis
E. coli GC 2233 = experiment: MIC, broth microdilution; conditions: Escherichia coli
E. coli GC 2231 = experiment: MIC, broth microdilution; conditions: Escherichia coli
S. aureus GC 1131 = experiment: MIC, broth microdilution; conditions: Staphylococcus aureus
E. coli GC 2236 = experiment: MIC, broth microdilution; conditions: Escherichia coli
E. coli GC 2235 = experiment: MIC, broth microdilution; conditions: Escherichia coli
S. epidermidis GC 4935 = experiment: MIC, broth microdilution; conditions: Staphylococcus epidermidis
E. coli GC 2234 = experiment: MIC, broth microdilution; conditions: Escherichia coli
Method: (§1) Antimicrobial susceptibility testing. The in vitro activities of the antibiotics are determined by the broth microdilution method as recommended by the National Committee for Clinical Laboratory Standards (NCCLS) (1). Mueller-Hinton II broth (MHBII)(BBL Cockeysville, Md.) is the medium employed in the testing procedures. Microtiter plates containing serial dilutions of each antimicrobial agent are inoculated with each organism to yield the appropriate density (10^5 CFU/ml) in a 100 μl final volume. The plates are incubated for 18-22 hours at 35° C. in ambient air.
Representative compounds were first incubated in mouse serum for an hour prior to the in vitro testing against a panel of selected gram-positive and gram-negative bacteria strains. All compounds were also pre-incubated in water for an hour prior to testing as control.

S. pneumoniae* GC 4465 = experiment: MIC, broth microdilution; conditions: Streptococcus pneumoniae
E. coli GC 4560 = experiment: MIC, broth microdilution; conditions: Escherichia coli
E. faecalis GC 4555 = experiment: MIC, broth microdilution; conditions: Enterococcus faecalis
Method: as §1
Representative compounds were first incubated in mouse serum for an hour prior to the in vitro testing against a panel of selected gram-positive and gram-negative bacteria strains. All compounds were also pre-incubated in water for an hour prior to testing as control. Representative compounds of Formula I were incubated in human serum prior to MIC determination.

E. faecium GC 4556 = experiment: MIC, broth microdilution; conditions: Enterococcus faecium
S. aureus GC 6467 = experiment: MIC, broth microdilution; conditions: Staphylococcus aureus
[1] = read-out: MINIMAL INHIBITORY CONCENTRATION MIC, pre-incubated in Human Serum
[2] = read-out: MINIMAL INHIBITORY CONCENTRATION MIC, pre-incubated in Mouse Serum
[3] = read-out: MINIMAL INHIBITORY CONCENTRATION MIC, pre-incubated in Water

For `CCC(C)(C)C(=O)OCOC(=O)N(CC(=O)Nc1cc(N(C)C)c2c(c1O)C(=O)C1=C(O)[C@]3(O)C(=O)C(C(N)=O)=C(O)[C@@H](N(C)C)[C@@H]3C[C@@H]1C2)C(C)(C)C` [Example 44, ({[(2-{[(5aR,6aS,7S,10aS)-9-(aminocarbonyl)-4,7-bis(dimethylamino)-1,8,10a,11-tetrahydroxy-10,12-dioxo-5,5a,6,6a,7,10,10a,12-octahydrotetracen-2-yl]amino}-2-oxoethyl)(tert-butyl)amino]carbonyl}oxy)methyl 2,2-dimethylbutanoate], the MIC (E. coli GC 2203; GC2203, read-out: MINIMAL INHIBITORY CONCENTRATION MIC, pre-incubated in Human Serum) was > 64 µg/mL, the MIC (E. coli GC 2203; GC2203, read-out: MINIMAL INHIBITORY CONCENTRATION MIC, pre-incubated in Mouse Serum) was 2 µg/mL (≈ 2.64 µM) and the MIC (E. coli GC 2203; GC2203, read-out: MINIMAL INHIBITORY CONCENTRATION MIC, pre-incubated in Water) was > 64 µg/mL. For the same molecule, the MIC (S. typhimurium GC 2172; [1]) was > 64 µg/mL, the MIC (S. typhimurium GC 2172; [2]) was 8 µg/mL (≈ 10.6 µM) and the MIC (S. typhimurium GC 2172; [3]) was > 64 µg/mL. The MIC (S. aureus GC 6466; GC6466, read-out: MINIMAL INHIBITORY CONCENTRATION MIC, pre-incubated in Human Serum) was 2 µg/mL (≈ 2.64 µM), the MIC (S. aureus GC 6466; GC6466, read-out: MINIMAL INHIBITORY CONCENTRATION MIC, pre-incubated in Mouse Serum) was 2 µg/mL (≈ 2.64 µM) and the MIC (S. aureus GC 6466; GC6466, read-out: MINIMAL INHIBITORY CONCENTRATION MIC, pre-incubated in Water) was 2 µg/mL (≈ 2.64 µM). The MIC (E. coli GC 6465; GC6465, read-out: MINIMAL INHIBITORY CONCENTRATION MIC, pre-incubated in Human Serum) was > 64 µg/mL, the MIC (E. coli GC 6465; GC6465, read-out: MINIMAL INHIBITORY CONCENTRATION MIC, pre-incubated in Mouse Serum) was 8 µg/mL (≈ 10.6 µM) and the MIC (E. coli GC 6465; GC6465, read-out: MINIMAL INHIBITORY CONCENTRATION MIC, pre-incubated in Water) was > 64 µg/mL. For the same molecule, the MIC (E. coli GC 2272; GC2272, read-out: MINIMAL INHIBITORY CONCENTRATION MIC, pre-incubated in Human Serum) was > 64 µg/mL, the MIC (E. coli GC 2272; GC2272, read-out: MINIMAL INHIBITORY CONCENTRATION MIC, pre-incubated in Mouse Serum) was 2 µg/mL (≈ 2.64 µM) and the MIC (E. coli GC 2272; GC2272, read-out: MINIMAL INHIBITORY CONCENTRATION MIC, pre-incubated in Water) was > 64 µg/mL. It also gave an MIC (S. aureus GC 1079; GC1079, read-out: MINIMAL INHIBITORY CONCENTRATION MIC, pre-incubated in Human Serum) of 2 µg/mL (≈ 2.64 µM), an MIC (S. aureus GC 1079; GC1079, read-out: MINIMAL INHIBITORY CONCENTRATION MIC, pre-incubated in Mouse Serum) of 2 µg/mL (≈ 2.64 µM) and an MIC (S. aureus GC 1079; GC1079, read-out: MINIMAL INHIBITORY CONCENTRATION MIC, pre-incubated in Water) of 4 µg/mL (≈ 5.28 µM). It also gave an MIC (Staph.; MRSA, read-out: Range of MIC, Staph (Mouse Serum)) of 2 µg/mL (≈ 2.64 µM), an MIC (Staph.; MRSA, read-out: Range of MIC, Staph (Water)) of 2 to 4 µg/mL (≈ 2.64 to 5.28 µM) and an MIC (Staph.; read-out: Minimum inhibitory concentration (MIC), Staph (Human Serum)) of 2 to 4 µg/mL (≈ 2.64 to 5.28 µM). For the same molecule, the MIC (Staph.; read-out: Minimum inhibitory concentration (MIC), Staph (Water)) was 2 to 4 µg/mL (≈ 2.64 to 5.28 µM), the MIC (E. faecalis GC 2267; GC2267, read-out: MINIMAL INHIBITORY CONCENTRATION MIC, pre-incubated in Human Serum) was 4 µg/mL (≈ 5.28 µM) and the MIC (E. faecalis GC 2267; GC2267, read-out: MINIMAL INHIBITORY CONCENTRATION MIC, pre-incubated in Mouse Serum) was 2 µg/mL (≈ 2.64 µM). For the same molecule, the MIC (E. faecalis GC 2267; GC2267, read-out: MINIMAL INHIBITORY CONCENTRATION MIC, pre-incubated in Water) was 4 µg/mL (≈ 5.28 µM), the MIC (E. coli GC 2233; GC2233, read-out: MINIMAL INHIBITORY CONCENTRATION MIC, pre-incubated in Human Serum) was > 64 µg/mL and the MIC (E. coli GC 2233; GC2233, read-out: MINIMAL INHIBITORY CONCENTRATION MIC, pre-incubated in Mouse Serum) was 2 µg/mL (≈ 2.64 µM). For the same molecule, the MIC (E. coli GC 2233; GC2233, read-out: MINIMAL INHIBITORY CONCENTRATION MIC, pre-incubated in Water) was > 64 µg/mL, the MIC (E. coli GC 2231; GC2231, read-out: MINIMAL INHIBITORY CONCENTRATION MIC, pre-incubated in Human Serum) was > 64 µg/mL and the MIC (E. coli GC 2231; GC2231, read-out: MINIMAL INHIBITORY CONCENTRATION MIC, pre-incubated in Mouse Serum) was 2 µg/mL (≈ 2.64 µM). For the same molecule, the MIC (E. coli GC 2231; GC2231, read-out: MINIMAL INHIBITORY CONCENTRATION MIC, pre-incubated in Water) was > 64 µg/mL, the MIC (S. aureus GC 1131; GC1131, read-out: MINIMAL INHIBITORY CONCENTRATION MIC, pre-incubated in Human Serum) was 2 µg/mL (≈ 2.64 µM) and the MIC (S. aureus GC 1131; GC1131, read-out: MINIMAL INHIBITORY CONCENTRATION MIC, pre-incubated in Mouse Serum) was 2 µg/mL (≈ 2.64 µM). For the same molecule, the MIC (S. aureus GC 1131; GC1131, read-out: MINIMAL INHIBITORY CONCENTRATION MIC, pre-incubated in Water) was 4 µg/mL (≈ 5.28 µM), the MIC (E. coli GC 2236; GC2236, read-out: MINIMAL INHIBITORY CONCENTRATION MIC, pre-incubated in Human Serum) was > 64 µg/mL and the MIC (E. coli GC 2236; GC2236, read-out: MINIMAL INHIBITORY CONCENTRATION MIC, pre-incubated in Mouse Serum) was 2 µg/mL (≈ 2.64 µM). The MIC (E. coli GC 2236; GC2236, read-out: MINIMAL INHIBITORY CONCENTRATION MIC, pre-incubated in Water) was > 64 µg/mL, the MIC (E. coli GC 2235; GC2235, read-out: MINIMAL INHIBITORY CONCENTRATION MIC, pre-incubated in Human Serum) was > 64 µg/mL and the MIC (E. coli GC 2235; GC2235, read-out: MINIMAL INHIBITORY CONCENTRATION MIC, pre-incubated in Mouse Serum) was 2 µg/mL (≈ 2.64 µM). For the same molecule, the MIC (E. coli GC 2235; GC2235, read-out: MINIMAL INHIBITORY CONCENTRATION MIC, pre-incubated in Water) was > 64 µg/mL, the MIC (S. epidermidis GC 4935; GC4935, read-out: MINIMAL INHIBITORY CONCENTRATION MIC, pre-incubated in Human Serum) was 4 µg/mL (≈ 5.28 µM) and the MIC (S. epidermidis GC 4935; GC4935, read-out: MINIMAL INHIBITORY CONCENTRATION MIC, pre-incubated in Mouse Serum) was 2 µg/mL (≈ 2.64 µM). For the same molecule, the MIC (S. epidermidis GC 4935; GC4935, read-out: MINIMAL INHIBITORY CONCENTRATION MIC, pre-incubated in Water) was 4 µg/mL (≈ 5.28 µM), the MIC (E. coli GC 2234; GC2234, read-out: MINIMAL INHIBITORY CONCENTRATION MIC, pre-incubated in Human Serum) was > 64 µg/mL and the MIC (E. coli GC 2234; GC2234, read-out: MINIMAL INHIBITORY CONCENTRATION MIC, pre-incubated in Mouse Serum) was 2 µg/mL (≈ 2.64 µM). For the same molecule, the MIC (E. coli GC 2234; GC2234, read-out: MINIMAL INHIBITORY CONCENTRATION MIC, pre-incubated in Water) was > 64 µg/mL, the MIC (S. pneumoniae* GC 4465; [1]) was 2 µg/mL (≈ 2.64 µM) and the MIC (S. pneumoniae* GC 4465; [2]) was 1 µg/mL (≈ 1.32 µM). The MIC (S. pneumoniae* GC 4465; [3]) was 2 µg/mL (≈ 2.64 µM), the MIC (E. coli GC 4560; GC4560, read-out: MINIMAL INHIBITORY CONCENTRATION MIC, pre-incubated in Human Serum) was 4 µg/mL (≈ 5.28 µM) and the MIC (E. coli GC 4560; GC4560, read-out: MINIMAL INHIBITORY CONCENTRATION MIC, pre-incubated in Mouse Serum) was 2 µg/mL (≈ 2.64 µM). It also gave an MIC (E. coli GC 4560; GC4560, read-out: MINIMAL INHIBITORY CONCENTRATION MIC, pre-incubated in Water) of 4 µg/mL (≈ 5.28 µM), an MIC (E. faecalis GC 4555; GC4555, read-out: MINIMAL INHIBITORY CONCENTRATION MIC, pre-incubated in Human Serum) of 4 µg/mL (≈ 5.28 µM) and an MIC (E. faecalis GC 4555; GC4555, read-out: MINIMAL INHIBITORY CONCENTRATION MIC, pre-incubated in Mouse Serum) of 2 µg/mL (≈ 2.64 µM). It also gave an MIC (E. faecalis GC 4555; GC4555, read-out: MINIMAL INHIBITORY CONCENTRATION MIC, pre-incubated in Water) of 4 µg/mL (≈ 5.28 µM), an MIC (E. faecium GC 4556; GC4556, read-out: MINIMAL INHIBITORY CONCENTRATION MIC, pre-incubated in Human Serum) of 4 µg/mL (≈ 5.28 µM) and an MIC (E. faecium GC 4556; GC4556, read-out: MINIMAL INHIBITORY CONCENTRATION MIC, pre-incubated in Mouse Serum) of 2 µg/mL (≈ 2.64 µM). For the same molecule, the MIC (E. faecium GC 4556; GC4556, read-out: MINIMAL INHIBITORY CONCENTRATION MIC, pre-incubated in Water) was 4 µg/mL (≈ 5.28 µM), the MIC (S. aureus GC 6467; GC6467, read-out: MINIMAL INHIBITORY CONCENTRATION MIC, pre-incubated in Human Serum) was 2 µg/mL (≈ 2.64 µM) and the MIC (S. aureus GC 6467; GC6467, read-out: MINIMAL INHIBITORY CONCENTRATION MIC, pre-incubated in Mouse Serum) was 2 µg/mL (≈ 2.64 µM). For the same molecule, the MIC (S. aureus GC 6467; GC6467, read-out: MINIMAL INHIBITORY CONCENTRATION MIC, pre-incubated in Water) was 4 µg/mL (≈ 5.28 µM).

From patent US20070049564A1 (Wyeth, priority 2005, published 2007)
